Measured values taken from BigSolDB 2.1.

COc1cc2nc(Cl)nc(N)c2cc1OC
solubility (mole fraction)
Details	273.15 K	278.15 K	283.15 K	288.15 K	293.15 K	298.15 K	303.15 K	308.15 K	313.15 K
in 1,4-dioxane	–	–	–	0.000108	0.000129	0.000154	0.000183	0.000216	0.000253
in DMF	0.00286	0.00336	0.00405	0.00495	0.00586	0.00687	0.00817	0.00979	0.0116
in NMP	0.00572	0.00648	0.00746	0.00838	0.00932	0.0103	0.0113	0.0124	0.0137
in cyclohexanone	0.00109	0.0013	0.00151	0.00177	0.00206	0.00241	0.0028	0.00324	0.00385
in ethanol	0.000169	0.000206	0.000246	0.0003	0.000359	0.000423	0.000497	0.000585	0.000693
in ethyl acetate	0.000278	0.000322	0.000375	0.000443	0.000522	0.000618	0.000725	0.000853	0.00101
in isobutanol	0.000232	0.000272	0.000325	0.00038	0.000443	0.000514	0.000601	0.000706	0.000841
in isopropanol	0.000142	0.000173	0.000209	0.000257	0.000306	0.000362	0.000434	0.000518	0.000622
in methanol	0.000109	0.000139	0.000171	0.00021	0.000255	0.00031	0.000378	0.000458	0.000544
in n-butanol	0.000252	0.000294	0.000345	0.000402	0.000467	0.000548	0.000648	0.000763	0.000929
in n-propanol	0.000209	0.000245	0.00029	0.000343	0.000403	0.000471	0.000552	0.000657	0.000769
in toluene	2e-06	2.7e-06	3.7e-06	5.1e-06	6.9e-06	9.2e-06	1.26e-05	1.66e-05	2.17e-05
